Assay results as given in article PMC10147923, “Pain-causing stinging nettle toxins target TMEM233 to modulate NaV1.7 function” (Nature Communications, 2023).
Several values for one entry are separate records, joined by “and”; a condition that tells them apart may be missing. Equal values may be shown once. Read-outs that look alike come from different tables or passages of the source. Positions of bridges follow the written chain, without caps; N, C: chain ends. Residues, ends and D or L forms follow the SMILES beside them.

Legend:
NaV1.8 = type: cell-based, mouse
NaV1.9 = type: cell-based, mouse
hNaV1.2 = experiment: Persistent current, HEK293-hNaV1.2/β1; type: cell-based, human; conditions: ExTxA 1 µM; individual cells
[1] = tested on: NaV currents in SH-SY5Y cells; experiment: Persistent current, SH-SY5Y cells; type: cell-based, human; conditions: ExTxA 1 µM
NaV1.7/TMEM233 = NaV1.7/TMEM233 (Homo sapiens, UniProt B4DJY2+Q15858); type: cell-based
Description: HEK293-NaV1.7 cells were transfected with TMEM233, CRELD1, LMAN2L, MMGT1, RNF121 and STT3B and co-transfected with five plasmids coding for the Glycosylphosphatidylinositol (GPI) complex (GPAA1, PIGK, PIGS, PIGU, PIGT) using Lipofectamine 2000. After 24 h, transfected cells were harvested and plated at a density of 10,000–15,000 cells per well on black-walled 384-well imaging plates. Plated cells were cultured for a further 24 h at 37 °C and 5% CO2. FLIPR (Fluorescent Imaging Plate Reader) Red membrane potential assay dye (Molecular Devices, California, USA) was diluted in physiological salt solution according to the manufacturer’s instructions (PSS, in mM: NaCl 140, glucose 11.5, HEPES 10, KCl 5.9, MgCl2 1.4, NaH2PO4 1.2, NaHCO3 5, CaCl2 1.8, pH 7.4). Growth medium was removed from the plate and replaced with 20 µL of FLIPR Red membrane potential assay dye per well and incubated in the dark at 37 °C for 60 min. […] Fluorescence responses to ExTxA were computed as the maximum change in fluorescence over baseline (ΔF/F0) using ScreenWorks (Molecular Devices, Version 5.1.2.94).

[2] = tested on: total NaV current in Tmem233Cre/Cre DRG neurons; experiment: Persistent NaV current, Tmem233Cre/Cre DRG neurons; type: cell-based, mouse
[3] = tested on: DRG neurons from Tmem233Cre/Cre knockout mice; experiment: Calcium imaging, Tmem233Cre/Cre DRG neurons; type: cell-based, mouse
Description: DRG from all spinal levels were isolated from male and female mice (wild-type C57BL/6 J, Tmem233^Cre/Cre, NaV1.8^Cre/Cre, NaV1.9^−/− or littermate controls) as previously described[36],[38],[39]. For Ca^2+ imaging experiments, DRG neurons were dissociated following incubation with 1% collagenase type IV (Worthington, New Jersey, USA) for 1.5 h (37 °C, 5% CO2) and 2.5% trypsin (Sigma-Aldrich, Montana, USA) for 15 min and resuspended in Dulbecco’s modified Eagle’s medium (DMEM) (Sigma-Aldrich, New South Wales, Australia) supplemented with 10% fetal bovine serum (FBS) (Thermofisher, Massachusetts, USA) and penicillin/streptomycin (Thermofisher, Massachusetts, USA). Following plating in 96-well poly-D-lysine–coated culture plates, isolated neurons were incubated for 24 h at 37 °C with 5% CO2 prior to imaging.
Dissociated DRG neurons from Tmem233^Cre/Cre and C57BL/6 mice were plated on PDL-coated 96-well black-walled imaging plates and loaded with Fluo-4 AM calcium indicator (5 μM) (Invitrogen, Massachusetts, USA) for 1 h in culture medium. Cells were washed with Hanks’ balanced salt solution containing 20 mM HEPES and then transferred to the recording chamber of a Nikon Ti-E Deconvolution inverted microscope equipped with a Lumencor Spectra LED light source. Fluorescence images (excitation, 485 nm; emission, 521 nm) were acquired at 1 frame per second using a ×20 objective. Following the recording of baseline fluorescence (20 s), cells were consecutively exposed to buffer control (0.1% BSA, t = 30 s), ExTxA (10 nM, t = 60 s), and 30 mM KCl (30 mM, t = 210 s). […] Cells responding to buffer control were excluded from analysis.

[4] = NMR of 15N-labelled ExTxA with dodecylphosphocholine micelles; type: binding; conditions: 1H-15N TROSY, 30 µM peptide, 20 mM Tris pH 8, 50 mM NaCl, 10% DPC, 298 K
Description: For NMR analysis, lyophilized ^15N-labelled ExTxA was resuspended either in 40% deuterated acetonitrile or buffer containing 20 mM Tris pH 8, 50 mM NaCl, 10% (w/v) dodecylphosphocholine (DPC) and 5% D2O. ^1H-^15N transverse relaxation optimized spectroscopy (TROSY) spectra were acquired for the peptide samples (30 µM) on a Bruker Avance 900 MHz NMR spectrometer equipped with a triple resonance cryogenic probe at 298 K. The spectra were processed using TOPSPIN v4.1.4 software (Bruker, Massachusetts, USA).

NaV1.7/PRRT2 = NaV1.7/PRRT2 (Homo sapiens, UniProt Q15858+Q7Z6L0); type: cell-based
TMEM233 = TMEM233 (Homo sapiens, UniProt B4DJY2); experiment: Currents in Cos-1 cells transfected with TMEM233 only; type: cell-based
Description: Whole-cell patch clamp experiments involving HEK293, COS-1, CHO, ND7/23, F11, SH-SY5Y and TE-671 cells were performed on a QPatch II automated electrophysiology platform (Sophion Bioscience, Ballerup, Denmark) as previously described. Cells at approximately 70–80% confluency were harvested from T75 flasks using TrypLE Express at 37 °C for 2–5 min and resuspended in DMEM with 25 mM HEPES (Sigma-Aldrich, NSW, Australia), 100 U/mL Penicillin-Streptomycin (Gibco) and 40 µg/mL trypsin inhibitor from Glycine max (soybean) (Sigma Aldrich) prior to recovery on a QStirrer (Sophion) for 30 min. 16-channel patch plates with a patch hole diameter of 1 μm and resistance of 2 ± 0.02 MΩ were used. Cell positioning and sealing parameters were as follows: positioning pressure −60 mbar, minimum seal resistance 0.1 GΩ, holding potential −100 mV, holding pressure −20 mbar. Whole-cell currents were filtered at 5 kHz and acquired at 25 kHz. Series resistance compensation was used and set to 70%.

[5] = best-fit value, log(agonist) vs. response -- variable slope (four parameters)

Chain of NaV1.7/PRRT2 (Q7Z6L0 whole entry): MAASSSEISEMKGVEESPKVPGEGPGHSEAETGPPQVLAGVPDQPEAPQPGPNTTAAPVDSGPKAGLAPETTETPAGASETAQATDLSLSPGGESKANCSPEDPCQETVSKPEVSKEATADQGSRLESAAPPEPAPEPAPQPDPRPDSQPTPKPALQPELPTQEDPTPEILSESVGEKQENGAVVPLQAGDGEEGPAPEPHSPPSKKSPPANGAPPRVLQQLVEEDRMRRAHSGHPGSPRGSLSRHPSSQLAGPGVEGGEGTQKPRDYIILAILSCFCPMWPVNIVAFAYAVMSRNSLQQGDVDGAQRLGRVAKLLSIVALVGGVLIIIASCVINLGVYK
Chain of NaV1.7/PRRT2 (Q07699 19-218, further chain): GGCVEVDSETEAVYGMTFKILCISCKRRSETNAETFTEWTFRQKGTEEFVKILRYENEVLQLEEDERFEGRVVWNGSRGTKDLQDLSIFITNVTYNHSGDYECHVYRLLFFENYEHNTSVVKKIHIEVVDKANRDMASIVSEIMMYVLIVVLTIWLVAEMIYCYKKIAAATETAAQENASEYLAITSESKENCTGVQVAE
Chain of NaV1.7/PRRT2 (Q15858 whole entry): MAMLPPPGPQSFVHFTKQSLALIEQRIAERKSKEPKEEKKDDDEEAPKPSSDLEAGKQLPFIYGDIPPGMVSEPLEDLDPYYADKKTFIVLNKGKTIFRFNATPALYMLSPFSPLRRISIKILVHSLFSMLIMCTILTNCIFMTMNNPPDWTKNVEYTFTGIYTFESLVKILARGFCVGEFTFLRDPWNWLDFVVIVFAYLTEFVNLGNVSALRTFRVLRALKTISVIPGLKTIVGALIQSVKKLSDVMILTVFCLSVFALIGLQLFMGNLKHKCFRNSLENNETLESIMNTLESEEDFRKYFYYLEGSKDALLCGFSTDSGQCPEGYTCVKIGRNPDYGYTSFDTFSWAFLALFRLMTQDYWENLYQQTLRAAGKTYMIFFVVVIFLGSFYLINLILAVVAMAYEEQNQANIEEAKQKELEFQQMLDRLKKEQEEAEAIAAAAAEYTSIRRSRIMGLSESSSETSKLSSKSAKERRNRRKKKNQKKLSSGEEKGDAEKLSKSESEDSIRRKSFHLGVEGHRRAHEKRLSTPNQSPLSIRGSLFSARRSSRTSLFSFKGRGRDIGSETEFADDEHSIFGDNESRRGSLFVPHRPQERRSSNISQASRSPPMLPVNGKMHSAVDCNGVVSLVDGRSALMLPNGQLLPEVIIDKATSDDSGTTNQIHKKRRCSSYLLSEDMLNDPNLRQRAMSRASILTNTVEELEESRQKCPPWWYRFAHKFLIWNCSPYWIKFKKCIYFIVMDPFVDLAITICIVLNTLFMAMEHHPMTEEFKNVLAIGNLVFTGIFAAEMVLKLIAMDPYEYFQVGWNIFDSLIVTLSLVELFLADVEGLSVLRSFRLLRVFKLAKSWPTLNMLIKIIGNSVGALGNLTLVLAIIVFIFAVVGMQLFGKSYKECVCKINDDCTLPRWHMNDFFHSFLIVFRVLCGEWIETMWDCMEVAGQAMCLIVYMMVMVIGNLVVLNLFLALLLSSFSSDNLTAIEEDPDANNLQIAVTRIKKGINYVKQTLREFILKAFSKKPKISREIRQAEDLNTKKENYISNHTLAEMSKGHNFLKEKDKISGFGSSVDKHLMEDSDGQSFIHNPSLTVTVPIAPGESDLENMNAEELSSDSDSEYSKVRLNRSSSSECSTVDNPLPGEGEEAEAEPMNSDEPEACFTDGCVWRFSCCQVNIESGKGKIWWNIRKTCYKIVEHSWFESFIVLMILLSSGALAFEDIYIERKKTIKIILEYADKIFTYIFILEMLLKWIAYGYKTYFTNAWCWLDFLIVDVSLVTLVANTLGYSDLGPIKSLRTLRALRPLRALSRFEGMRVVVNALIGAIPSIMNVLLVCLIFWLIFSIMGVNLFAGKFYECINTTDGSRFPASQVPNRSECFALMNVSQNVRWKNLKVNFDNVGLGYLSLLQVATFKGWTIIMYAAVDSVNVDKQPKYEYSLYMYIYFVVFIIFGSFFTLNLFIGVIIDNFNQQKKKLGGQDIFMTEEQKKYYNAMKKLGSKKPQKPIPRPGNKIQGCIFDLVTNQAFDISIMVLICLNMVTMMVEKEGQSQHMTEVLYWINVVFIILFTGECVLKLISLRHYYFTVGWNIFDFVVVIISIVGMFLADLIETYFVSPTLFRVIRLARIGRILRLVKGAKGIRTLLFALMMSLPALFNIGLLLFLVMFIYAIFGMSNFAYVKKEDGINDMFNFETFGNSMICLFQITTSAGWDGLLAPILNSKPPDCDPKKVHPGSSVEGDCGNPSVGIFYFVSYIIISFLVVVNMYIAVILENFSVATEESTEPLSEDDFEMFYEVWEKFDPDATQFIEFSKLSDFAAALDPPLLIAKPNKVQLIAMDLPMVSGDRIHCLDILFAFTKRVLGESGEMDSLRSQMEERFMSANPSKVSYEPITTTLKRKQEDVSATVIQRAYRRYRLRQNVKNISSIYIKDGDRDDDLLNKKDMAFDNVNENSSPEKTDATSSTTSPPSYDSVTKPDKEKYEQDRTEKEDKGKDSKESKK
Chain of TMEM233 (B4DJY2 whole entry): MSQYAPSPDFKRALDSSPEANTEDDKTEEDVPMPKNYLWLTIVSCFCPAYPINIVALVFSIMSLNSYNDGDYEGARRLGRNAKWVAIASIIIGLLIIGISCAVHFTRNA

In the case of `CC[C@H](C)[C@@H]1NC(=O)[C@H](CCCNC(=N)N)NC(=O)[C@H](Cc2ccccc2)NC(=O)[C@H](CC(C)C)NC(=O)[C@H](CO)NC(=O)[C@@H]2CSSC[C@@H]3NC(=O)[C@H]([C@@H](C)O)NC(=O)[C@H](CSSC[C@H](NC(=O)[C@H](CCCNC(=N)N)NC(=O)[C@@H]4CCCN4C(=O)[C@@H](N)CC(C)C)C(=O)N[C@@H](CC(=O)O)C(=O)N[C@@H](CO)C(=O)N4CCC[C@H]4C(=O)N[C@@H](Cc4ccccc4)C(=O)N2)NC(=O)[C@H](CCCCN)NC(=O)[C@H](CC(=O)O)NC(=O)CNC(=O)[C@H](CSSC[C@@H](C(=O)N[C@H](C(=O)N2CCC[C@H]2C(=O)N[C@@H](CC(=O)O)C(=O)N[C@H](C(=O)O)C(C)C)C(C)C)NC(=O)[C@H](CC(C)C)NC(=O)CNC(=O)[C@H](Cc2ccccc2)NC(=O)[C@H]([C@@H](C)CC)NC(=O)[C@@H]2CCCN2C(=O)[C@H](CC(C)C)NC(=O)[C@@H]2CCCN2C(=O)[C@H](C(C)C)NC3=O)NC(=O)[C@H](CC(C)C)NC(=O)CNC1=O` [ExTxA, excelsatoxin A] (H-LPRCDSPFCSLFRIGLCGDKCTCVPLPIFGLCVPDV-OH; disulfide 4-21, 9-23, 17-32), the “DRG NaV1.8 Δ persistent current (I40 ms/Ipeak)” value (NaV1.8) is reported as 0.050 ± 0.015, the “DRG NaV1.9 Δ persistent current (I90 ms/Ipeak)” value (NaV1.9) is reported as -0.057 ± 0.028 and the “persistent current (I40 ms/Ipeak)” value (hNaV1.2) is reported as -0.01884 and -0.01572 and 0.004985 and 0.03852 and -0.01184 and -0.02181 and 0.005193 and -0.01291 and 0.01563 and -0.00224 and -0.00414. The “persistent current (I40 ms/Ipeak)” value ([1]; individual cells) was -0.02037 and -0.04756 and 0.0447 and 0.01578 and 0.03746, the “Δ persistent current (I40 ms/Ipeak; buffer cf. ExTxA)” value ([1]; mean) was 0.006 ± 0.0175 and 0.006003 and the DF/F (NaV1.7/TMEM233) was 0.3009 and 0.2755. For the same compound, the “ΔF/F in NaV1.7 HEK293” value (NaV1.7/TMEM233; ExTxA 1 µM, TMEM233, mean, n = 3) was 0.29 ± 0.0075 and 0.2867, the DF/F (NaV1.7/TMEM233; ExTxA 1 µM, TMEM233, replicate 3) was 0.2837 and the Bottom (NaV1.7/TMEM233; [5]) was 0.07296. It also gave a HillSlope (NaV1.7/TMEM233; [5]) of 1.156, a LogEC50 (NaV1.7/TMEM233; [5]) of -8.146 and a Span (NaV1.7/TMEM233; [5]) of 0.6962. For the same compound, the Top (NaV1.7/TMEM233; [5]) was 0.7692, the “ExTxA-sensitivity of NaV1.7-expressing HEK293 cells” value (NaV1.7/TMEM233; of all 10 gene hits) was “only expression of TMEM233 imparted ExTxA-sensitivity to NaV1.7-expressing HEK293 cells” and the “persistent current, Mean diff, A2 - B2” value [2] was 0.4591. For the same compound, the “ExTxA-induced persistent current (I40ms/Ipeak; nA) in DRG neurons” value ([2]; ExTxA 30 nM, Tmem233Cre KO, mean ± SEM, n = 7) was 0.114 ± 0.04, the “ExTxA-induced DRG Ca2+ responses” value ([3]; ExTxA 10 nM, Tmem233Cre KO, Fluo-4, >1.5-fold increase, mean ± SEM, n = 7 wells) was 22.33 ± 1.942 % neurons activated and the “calcium imaging response (Fig. 3f)” value ([3]; KO, individual values, one line each (n = 7)) was 24.6269 and 21.831 and 19.2118 and 28.0374 and 12.6582 and 26.1905. For the same compound, the “calcium imaging response (Fig. 3f), Mean” value ([3]; KO, mean, number of values 7, Std. Deviation 5.137, SEM 1.942) was 22.33, the “calcium imaging response (Fig. 3f), Median” value ([3]; KO, median, number of values 7) was 23.77 and the “association with dodecylphosphocholine micelles” value [4] was “associates with dodecylphosphocholine micelles”. It also gave a LogEC50 (NaV1.7/PRRT2; Nav1.7/PRRT2, 95% CI -6.892 to -6.214, Fig 4g) of -6.331, a HillSlope (NaV1.7/PRRT2; Nav1.7/PRRT2, Fig 4g) of 0.9384 and a Top (NaV1.7/PRRT2; Nav1.7/PRRT2, best-fit, constraint Top < 1, Fig 4g) of 0.7711. For the same compound, the “ExTxA-induced currents with PRRT2” value (NaV1.7/PRRT2; co-expression with NaV1.7) was “resulted in ExTxA-induced persistent currents”, the ExTxA-induced persistent current (TMEM233) was -7.493 ± 8.833 and the “ExTxA-induced currents, TMEM233 alone” value (TMEM233; cells lacking endogenous NaV currents) was “did not result in either voltage-gated or ExTxA-induced currents”.
